Results taken from BindingDB's records for doi:10.7270/Q21J98DJ (The Scripps Research Institute Molecular Screening Center, 2014).

molecular target: Disintegrin and metalloproteinase domain-containing protein 17 (Homo sapiens, UniProt P78536); test: exosite inhibitors of ADAM17, dose response, biochemical (AID 743260)
Sequence (P78536 whole entry, the tested form may be a part): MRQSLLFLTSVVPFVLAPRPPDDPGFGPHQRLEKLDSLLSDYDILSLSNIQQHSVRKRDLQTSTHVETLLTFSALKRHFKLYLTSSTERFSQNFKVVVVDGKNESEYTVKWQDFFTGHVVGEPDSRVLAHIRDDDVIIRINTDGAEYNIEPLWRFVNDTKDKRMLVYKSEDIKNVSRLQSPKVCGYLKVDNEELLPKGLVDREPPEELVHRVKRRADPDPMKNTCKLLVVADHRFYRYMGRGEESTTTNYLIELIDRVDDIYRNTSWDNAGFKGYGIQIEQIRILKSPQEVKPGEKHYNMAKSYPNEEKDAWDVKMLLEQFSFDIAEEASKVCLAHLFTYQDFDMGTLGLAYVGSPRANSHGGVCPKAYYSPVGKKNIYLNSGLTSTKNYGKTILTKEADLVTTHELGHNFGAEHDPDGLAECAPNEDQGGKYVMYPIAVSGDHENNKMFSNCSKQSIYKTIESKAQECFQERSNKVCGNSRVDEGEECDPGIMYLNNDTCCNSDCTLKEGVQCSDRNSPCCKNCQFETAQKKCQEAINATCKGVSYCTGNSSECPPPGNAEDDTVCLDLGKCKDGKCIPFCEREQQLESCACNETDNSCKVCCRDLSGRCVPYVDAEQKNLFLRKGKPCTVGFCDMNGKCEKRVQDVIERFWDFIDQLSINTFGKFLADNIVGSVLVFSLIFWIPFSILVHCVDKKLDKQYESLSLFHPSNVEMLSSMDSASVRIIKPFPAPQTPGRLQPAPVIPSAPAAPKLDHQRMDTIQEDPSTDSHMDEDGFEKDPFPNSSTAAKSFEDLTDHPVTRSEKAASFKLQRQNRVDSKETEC

| Compound | IC50 [µM] |
| --- | --- |
| CCOc1ccc(NC(=O)Cc2sc(=O)n(-c3ccccc3)c2O)cc1 | 5.73 |
| Cn1c(-c2sccc2OCc2ccc(Cl)cc2Cl)n[nH]c1=S | 69.5 |
| O=C(Cc1sc(=O)n(-c2ccccc2)c1O)Nc1ccccc1 [2-(2,4-diketo-3-phenyl-thiazolidin-5-yl)-N-phenyl-acetamide] | 46.7 |
| COc1cccc(C2c3oc(CO)cc(=O)c3OC(=N)C2C#N)c1 (stereo not drawn) [2-Amino-6-hydroxymethyl-4-(3-methoxy-phenyl)-8-oxo-4,8-dihydro-pyrano[3,2-b]pyran-3-carbonitrile] | 69.5 |
| COc1ccc(NC(=O)c2oc3ccccc3c2NC(=O)C(C)(C)C)cc1 [3-(2,2-dimethylpropanoylamino)-N-(4-methoxyphenyl)-1-benzofuran-2-carboxamide] | 69.5 |
| CCOc1cc(C(c2c(C)[nH][nH]c2=O)c2c(C)[nH][nH]c2=O)ccc1O [4-[(3-ethoxy-4-hydroxyphenyl)-(3-methyl-5-oxo-1,2-dihydropyrazol-4-yl)methyl]-5-methyl-1,2-dihydropyrazol-3-one] | 69.5 |
| Cc1cccc(NNC2=c3cc(Br)ccc3=NC2=O)c1 [5-bromo-3-[2-(3-methylphenyl)hydrazinyl]indol-2-one] | 69.5 |
| C=c1cc(O)c(CN(C)C)c2oc(=Cc3ccco3)c(O)c12 [(2Z)-7-[(dimethylamino)methyl]-2-(furan-2-ylmethylidene)-6-hydroxy-4-methyl-1-benzofuran-3-one] | 17 |
| CC1CCCN(CCCNC(=O)c2coc3nc4ccccc4nc23)C1 (stereo not drawn) [MLS000046706] | 69.5 |
| O=C1OCCN1C(=O)C1=[N+](c2ccc(Br)cc2)N[C-](c2ccccc2)[C@H]1c1ccc([N+](=O)[O-])cc1 [SMR000327268] | 69.5 |
| CC(=NNC(=N)Sc1cc(O)n(-c2ccc(Br)cc2)c1O)c1cccs1 [[1-(4-bromophenyl)-2,5-bis(oxidanylidene)pyrrolidin-3-yl] N''-(1-thiophen-2-ylethylideneamino)carbamimidothioate] | 69.5 |
| CC(=NNC(=N)Sc1cc(O)n(-c2ccccc2)c1O)c1cccs1 [[2,5-bis(oxidanylidene)-1-phenyl-pyrrolidin-3-yl] N'-[(E)-1-thiophen-2-ylethylideneamino]carbamimidothioate] | 69.5 |
| COC(=O)c1cccc(Cn2c(Cl)c(CN=Nc3ccccc3C)sc2=O)c1 [methyl 3-[[4-chloro-5-[[(2-methylphenyl)hydrazinylidene]methyl]-2-oxo-1,3-thiazol-3-yl]methyl]benzoate] | 69.5 |
